“Also recorded” adds a separate entry of the source.
Legend:
[1] = Meropenem concentration in stool of mice given meropenem in drinking water; assay type: in vivo; conditions: mouse, oral; 0.625 g/L in drinking water; normal SPF mice; stool 48 hours after starting; median±SE; read-out: meropenem concentration in fecal samples
Method: To further explore a potential causal relationship between meropenem and intestinal GVHD, the effects of meropenem on GVHD in a mouse model of allo-HSCT were examined. A method of administering meropenem to mice was first developed that would better mimic the effects of meropenem on the intestinal microbiome of patients, which is typically given every 8 hours intravenously. Previously, antibiotics were administered subcutaneously to mice (25), and meropenem concentrations were quantified in the cecal lumen of mice 4, 8, 24, 48 and 96 hours after subcutaneous injection. […] Next, drinking water was evaluated as a means of continuously administering meropenem to mice, using bacterial density quantified by 16S ribosomal RNA (16S rRNA) gene quantitative PCR (qPCR) to gauge reductions of the intestinal microbiota.
Murine isolates of Enterococcus faecalis (MDA-JAX EF001), Clostridium disporicum (MDA-JAX CD001), Clostridium saudiense (MDA-JAX CS001), and Lachnospiraceae unclassified (MDA-JAX LS001) were also tested.
Antibiotics administration.

[2] = Murine GVHD model: fecal SCFAs by IC-MS; assay type: in vivo; conditions: day 18; meropenem-treated allo-HSCT mice
Excerpt: In some cases, meropenem-induced intestinal dysbiosis contributes to aggravated GVHD via loss of beneficial commensal bacteria. In some embodiments, meropenem-treated allogeneic mice show a loss of Clostridia abundance and a reduction in SCFA levels, including butyrate. On day 7, or 4 days following the start of meropenem treatment, Clostridia were depleted in meropenem-treated mice and remained so at 6 days after stopping 5 meropenem (FIG. 20A).
Short Chain Fatty Acids profiling by ion chromatography-mass spectrometry (IC-MS). To determine the relative abundance of short chain fatty acids in mouse feces samples, extracts were prepared and analyzed by ultra-high resolution mass spectrometry (HRMS). Fecal pellets were homogenized with a […]® Tissue Homogenizer. Metabolites were extracted using 1 mL ice-cold 0.1% Ammonium hydroxide in 80/20 (v/v) methanol/water. Extracts were centrifuged at 17,000 g for 5 min at 4° C., and supernatants were transferred to clean tubes, followed by evaporation to dryness under nitrogen. Dried extracts were reconstituted in deionized water, and 5 μL was injected for analysis by IC-MS. IC mobile phase A (MPA; weak) was water, and mobile phase B (MPB; strong) was water containing 100 mM KOH. A THERMO […]™ DIONEX™ ICS-5000+ system included a THERMO FISHER […]™ IONPAC™ AS11 column ([…], 250×2 mm) with column compartment kept at 30° C. […]

[3] = assay type: in vivo, mice
Method: The mucus layer provides a critical contribution to the intestinal barrier by excluding bacteria from the intestinal lumen adjacent to the intestinal epithelium. […] Translocating bacteria included Enterococcus faecalis, Enterococcus gallinarum, Lactobacillus johnsonii, and BT (FIGS. 17D-17E).
Immunostaining and fluorescence in situ hybridization. […] Paraffin-embedded sections were dewaxed and hydrated. Sections were incubated with 1 μg Alexa Fluor 594-conjugated EUB338 (5′-[…]-3′; SEQ ID NO:1) for detection of all bacteria in 200 μL of hybridization buffer (750 mM NaCl, 100 mM Tris-HCl (pH 7.4), 5 mM EDTA, 0.01% BSA, 10% dextran sulfate) at 40° C. for 16 hours. Sections were rinsed in wash buffer (50 mM NaCl, 4 mM Tris-HCl (pH 7.4), 0.02 mM EDTA), washed at 45° ° C. for 20 min, stained with anti-Muc2 antibody [C3] (GTX100664, GeneTex) and counterstained with DAPI (Vector Laboratories). Photographs of sections were obtained using a fluorescent microscope (Nikon NIS Elements, Advanced Research version 4.20).
Microbiologic analysis of bacterial translocation. Mesenteric lymph nodes (MLNs) were harvested from mice and homogenized in PBS and cultured anaerobically on BHI plates containing yeast extract and 5% sterilized rumen fluid (THERMO FISHER […]™)) and Columbia blood agar plates (BD) for 4 days at 37° ° C. Colony-forming units (CFUs) were counted and adjusted per organ. […]

[4] = system: neutrophils and dendritic cells in the colon; experiment: Murine GVHD model: colonic infiltration by neutrophils and dendritic cells; assay type: in vivo; conditions: meropenem-treated mice with GVHD
Excerpt: Altogether, these findings indicate that, in some cases, meropenem treatment leads to compromise of the colonic mucus layer, increased bacterial translocation and an aggravated inflammatory response.
Histological and immunohistochemistry analysis. […] Pathology scores were quantified by a blinded pathologist. […] Sections were imaged using an APERIO® AT2.
Lamina propria hematopoietic cell dissociation. Murine colons were isolated, dissected longitudinally and then on a shaker in 2% fetal bovine serum in PBS with 1 mM DL-dithiothreitol (Bioworld) at 37 °C for 20 min and subsequently incubated with 1.3 mM EDTA at 37° C. for 40 min. They were rinsed twice and digested with 0.3 mg/ml of type IV collagenase (C5138, SIGMA-ALDRICH®) at 37 °C for 45 min, homogenized, filtered, and washed.
Flow cytometric analysis. Monoclonal antibodies conjugated with fluorescein isothiocynate, phycoerythrin, phycoerythrin-Cy7, peridinin-chlorophyll protein complexes, allophycocyanin, or allophycocyanin-Cy7 were purchased from Tonbo Biosciences (San Diego, CA), EBIOSCIENCE™ (San Diego, CA), or BIOLEGEND® (San Diego, CA.). […] In flow cytometric analysis, at least 100,000 live samples were analyzed using BD LSRFORTESSA™ X-20 (BD Biosciences) and FlowJo software (Trec Star, OR). […]

## C[C@@H](O)[C@H]1C(=O)N2C(C(=O)O)=C(S[C@@H]3CN[C@H](C(=O)N(C)C)C3)[C@H](C)[C@H]12 [meropenem]
[1]
  concentration at 48 h: 110 ± 70 ng/g
[2]
  fecal levels of SCFAs: significantly decreased; also recorded: reduced fecal levels of SCFAs, with particularly dramatic reductions in butyrate and valerate
[3]; day 18
  bacterial loads cultivated from MLNs: higher bacterial loads
[3]; mice with GVHD
  bacteria in mucus layer and lamina propria (16S FISH): dissemination of bacteria into the mucus layer and lamina propria of the colon
[4]
  colonic tissue infiltration by neutrophils and dendritic cells: marked colonic tissue infiltration by neutrophils and dendritic cells

Source: patent US20240216410A1, “METHODS AND COMPOSITIONS FOR TREATING CANCER THERAPY-INDUCED NEUTROPENIC FEVER AND/OR GVHD” (BOARD OF REGENTS, THE UNIVERSITY OF TEXAS SYSTEM, priority 2021, published 2024)
